Tested on: SARS-CoV-2
Assay: not given
Format: cell-based, SARS-CoV-2 (USA-WA1/2020)
Conditions: not given

SMILES	% Inhibition at HIGHEST Non-toxic Concentration [%]
CNCCCN1c2ccccc2CCc2ccccc21 [Desipramine, reference compound]	60
CN(C)CCCN1c2ccccc2Sc2ccccc21 [Promazine, reference compound]	70
Cc1cn(-c2cc(NC(=O)c3ccc(C)c(Nc4nccc(-c5cccnc5)n4)c3)cc(C(F)(F)F)c2)cn1 [Nilotinib]	60
OCCOc1ccc(/C(=C(/CCCl)c2ccccc2)c2ccccc2)cc1 [Ospemifene]	45
Fc1ccc(C(c2ccc(F)cc2)N2CCN(C/C=C/c3ccccc3)CC2)cc1 [Flunarizine]	80
Cc1ccc(NC(=O)c2ccc(CN3CCN(C)CC3)cc2)cc1Nc1nc(-c2cccnc2)cs1 [Masitinib]	90
CC(C)COCC(CN(Cc1ccccc1)c1ccccc1)N1CCCC1 (stereo not shown) [Bepridil, reference compound]	60
CC(COc1ccccc1)N(CCCl)Cc1ccccc1 (stereo not shown) [Phenoxybenzamine]	95
CCCCC1C(=O)N(c2ccccc2)N(c2ccccc2)C1=O [Phenylbutazone]	90
CCN(CCCc1ccccc1)CCCc1ccccc1 [Alverine]	30
NC(=O)C(c1ccccc1)(c1ccccc1)[C@@H]1CCN(CCc2ccc3c(c2)CCO3)C1 [Darifenacin]	45

Tested on: coronaviruses (MERS; SARS-1; SARS-2)
Assay: not given
Conditions: cited from earlier work

SMILES	CoV Inhibition
CC(C)NCC(O)COc1cccc2ccccc12 (stereo not shown) [propranolol, reference compound]	MERS; SARS-1
CNCCCN1c2ccccc2CCc2ccccc21 [Desipramine, reference compound]	MERS; SARS-1 and MERS
OCCN1CCN(CCCN2c3ccccc3Sc3ccc(C(F)(F)F)cc32)CC1 [fluphenazine]	SARS-2; and MERS
CCN(CC)CCCC(C)Nc1ccnc2cc(Cl)ccc12 (stereo not shown) [chloroquine]	MERS
CN(C)CCCN1c2ccccc2Sc2ccccc21 [Promazine, reference compound]	MERS; SARS-1 and MERS
CN(C)CCCN1c2ccccc2CCc2ccc(Cl)cc21 [clomipramine]	MERS
CC(CN1c2ccccc2Sc2ccccc21)N(C)C (stereo not shown) [promethazine]	MERS
C=CCc1ccccc1OCC(O)CNC(C)C (stereo not shown) [alprenolol]	MERS
CCSc1ccc2c(c1)N(CCCN1CCN(C)CC1)c1ccccc1S2 [thiethylperazine]	SARS-2; and MERS
COc1c(C)c2c(c(O)c1C/C=C(\C)CCC(=O)OCCN1CCOCC1)C(=O)OC2 [mycophenolate_mofetil, reference compound]	MERS; SARS-1
CCN(CCO)CCCC(C)Nc1ccnc2cc(Cl)ccc12 (stereo not shown) [hydroxychloroquine]	SARS-2; and MERS
CCN(CC)Cc1cc(Nc2ccnc3cc(Cl)ccc23)ccc1O [amodiaquine]	SARS-2; and MERS
CN(C)CCCN1c2ccccc2Sc2ccc(Cl)cc21 [chlorpromazine]	SARS-2;
COc1cc2nc(N3CCN(C(=O)C4COc5ccccc5O4)CC3)nc(N)c2cc1OC (stereo not shown) [doxazosin, reference compound]	MERS; SARS-1
CC(C)N1CCN(c2ccc(OCC3COC(Cn4cncn4)(c4ccc(Cl)cc4Cl)O3)cc2)CC1 (stereo not shown) [terconazole, reference compound]	MERS; SARS-1

Tested on: Vero E6 cells
Assay: Toxicity: CellTiter-Blue Cell Viability Assay
Conditions: not given

SMILES	TOXICITY Y/N
CNCCCN1c2ccccc2CCc2ccccc21 [Desipramine, reference compound]	Very weak
CN(C)CCCN1c2ccccc2Sc2ccccc21 [Promazine, reference compound]	Very weak
